Results from patent US6172079A, “5-substituted-3-oxadiazolyl-1,6-naphthyridin-2(1H)-one derivatives” (Dainippon Pharmaceutical Co., Ltd., priority 1997, dated 2001).

How the values were obtained:
[1] = test system: GABAA receptor; conditions: background statement; cited from earlier work
[2] = test system: ddY male mice (pentylentetrazol-induced convulsion); experiment: Test of Increasing Activity on Pentylentetrazol-induced Convulsion; type: in vivo; conditions: Mus musculus, 0.5 h, po, pentylentetrazol 70 mg/kg s.c. 15 min later, read-out: Effects (number of animals) with increased pentylentetrazol-induced convulsion (converted)
Procedure: It is known that benzodiazepine receptor inverse agonists increase convulsion induced by pentylentetrazol [cf. Progress in Neuro-Psychopharmacology and Biological Psychiatry, vol. […] Some compounds of the present invention were tested as to the activities of increasing the pentylentetrazol-induced convulsion.
A test compound (compounds disclosed in working examples) was orally administered to ddY male mice (weight; 22-25 g, five mice/group) in an amount of 5-100 mg/kg. […] The effects were evaluated by the number of mice among five mice, of which the convulsion increasing effects were observed.

[3] = molecular target: benzodiazepine receptor; experiment: Benzodiazepine Receptor Binding Assay; conditions: read-out: BZP-receptor Binding IC50; [3H]-diazepam 1.5 nM; rat brain crude synaptosome membrane; 0° C., 20 min
[4] = test system: GABAA receptor complex (TBPS binding); experiment: TBPS Binding Assay; design: species or system Wistar rats; conditions: [35S]TBPS 0.4 nM, GABA 1 μM, rat cerebral cortex membrane, +% inverse agonistic, 0% antagonistic

SMILES | IC50 [3] | TBPS binding Variation Rate [4] | other results
CNC(=O)c1cc2c(cn1)[nH]c1ccccc12 [FG7142, N-methyl-β-carboline-3-carboxamide] |  |  | uptake of Cl ion into cells [1]: increased
CCc1c(C(=O)OC)ncc2[nH]c3cc(OC)c(OC)cc3c12 [DMCM, methyl-6,7-dimethoxy-4-ethyl-β-carboline-3-carboxylate] |  |  | uptake of Cl ion into cells [1]: increased
NCc1cc(=O)[nH]o1 [Muscimol] |  |  | uptake of Cl ion into cells [1]: decreased
O=C1CN=C(c2ccccc2Cl)c2cc([N+](=O)[O-])ccc2N1 [chlonazepam] |  |  | uptake of Cl ion into cells [1]: decreased
Cc1nc(-c2cc3c(-c4cccc(F)c4)nccc3[nH]c2=O)no1 [Example 5] | 1.64 nM | 21% | responders at 5 mg/kg ([2]; 5 mg/kg): 100%
CCc1noc(-c2cc3c(-c4ccncc4)nccc3[nH]c2=O)n1 [Example 213, 3-(3-Ethyl-1,2,4-oxadiazol-5-yl)-5-(4-pyridyl)-1,6-naphthyridin-2(1H)-one] | 2.07 nM | 26% | responders at 10 mg/kg [2]: 100%
Cc1nc(-c2cc3c(-c4ccccc4Cl)nccc3[nH]c2=O)no1 [Example 88] | 4.63 nM | 41% | responders at 10 mg/kg [2]: 100%
CCc1noc(-c2cc3c(-c4cccs4)nccc3[nH]c2=O)n1 [Example 173, 3-(3-ethyl-1,2,4-oxadiazol-5-yl)-5-(2-thienyl)-1,6-naphthyridin-2(1H)-one] | 0.94 nM | 18% | responders at 20 mg/kg [2]: 100%
Cc1cccc(-c2nccc3[nH]c(=O)c(-c4nc(C)no4)cc23)c1 [Example 183, 3-(3-Methyl-1,2,4-oxadiazol-5-yl)-5-(3-methylphenyl)-1,6-naphthyridin-2(1H)-one] | 1.55 nM | 8% | responders at 20 mg/kg [2]: 80%
COc1ccc(-c2nccc3[nH]c(=O)c(-c4noc(C)n4)cc23)cc1 [Example 11, 3-(5-Methyl-1,2,4-oxadiazol-3-yl)-5-(4-methoxyphenyl)-1,6-naphthyridin-2(1H)-one] | 9.77 nM | 21% | responders at 10 mg/kg [2]: 80%
CCc1noc(-c2cc3c(-c4cccc(F)c4)nccc3[nH]c2=O)n1 [Example 200, 3-(3-Ethyl-1,2,4-oxadiazol-5-yl)-5-(3-fluorophenyl)-1,6-naphthyridin-2(1H)-one] | 0.92 nM | 17% | responders at 50 mg/kg ([2]; 50 mg/kg): 80%
CCc1nc(-c2cc3c(-c4ccco4)nccc3[nH]c2=O)no1 [Example 102] | 0.81 nM | 33% | responders at 10 mg/kg [2]: 100%
CCc1nc(-c2cc3c(C4CC4C)nccc3[nH]c2=O)no1 (stereo not shown) [Example 18, 3-(5-Ethyl-1,2,4-oxadiazol-3-yl)-5-(2-methylcyclopropyl)-1,6-naphthyridin-2(1H)-one] | 2.04 nM | 10% | responders at 20 mg/kg [2]: 60%
CCCc1nccc2[nH]c(=O)c(-c3nc(CC)no3)cc12 [Example 192] | 4.22 nM | 13% | responders at 100 mg/kg ([2]; 100 mg/kg): 100%
